Results on 21 compounds are retold here after paper PMC2997884 (Molecular pharmaceutics, 2010).

Like-named read-outs stand apart in the source and are kept apart here. Where a SMILES comes first, the peptide text is derived from it. [ ]: non-standard residue; d: D form. The star is where a group is joined. ξ: configuration not given here. pNA = O=[N+]([O-])c1ccc(N*)cc1; ξP = O=C(O)C1CCCN1

A word on the Km: it is the substrate concentration at which the rate is half of its maximum. A word on the kcat: it is the maximal rate divided by the concentration of active sites. By half-life is commonly meant the time in which the quantity being followed falls by half. Low readings indicate fast loss, high ones slow loss.

Data set [1] concerns the target T1, hVACVase (Homo sapiens, UniProt Q86WA6).
T1 sequence (Q86WA6 38-291): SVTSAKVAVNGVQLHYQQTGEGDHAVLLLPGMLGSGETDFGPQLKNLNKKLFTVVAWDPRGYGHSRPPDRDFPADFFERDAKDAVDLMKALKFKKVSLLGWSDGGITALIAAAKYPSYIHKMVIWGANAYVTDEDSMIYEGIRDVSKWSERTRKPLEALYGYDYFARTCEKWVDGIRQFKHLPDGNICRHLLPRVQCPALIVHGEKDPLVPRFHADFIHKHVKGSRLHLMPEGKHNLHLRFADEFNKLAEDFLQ
As to conditions: cited from earlier work; for Vmax / Km: hVACVase; for specific activity: hVACVase substrate.

The test system of data set [2] is chymotrypsin. The settings on record: N-acetyltryptophanyl-X substrates of chymotrypsin; ref Bender and Kezdy[14]; cited from earlier work.
Data set [3] concerns the target T1, hVACVase. The data set can be described thus: hVACVase-mediated hydrolysis. As to conditions: 50 mM HEPES pH 7.4, 37°C, 6×His-tagged hVACVase for Val-3-APG; for kcat: calculated from Vmax/[enzyme]0; for Km / Vmax: mean ± SEM, Phe-OMe n=2, others n=3.
Data set [4] can be described thus: Hydrolysis in pH 7.4 HEPES buffer. Format: physicochemical. The settings on record: for t1/2 (estimated half-life): pH 7.4 HEPES buffer, 37 °C, mean ± SEM, esters n=3, Val-3-APG n=1 (up to 800 h).
The target of data set [5] is T1, hVACVase. The settings on record: hVACVase-mediated hydrolysis; previously published; ref Sun et al.[12]; cited from earlier work.

`CC(C)(C)OC(=O)[C@@H](N)Cc1ccccc1` [phenylalanine t-butyl ester]: the “hVACVase substrate or not” value in data set [1] is on record as “not a substrate”.

With `COC(=O)[C@H](Cc1c[nH]c2ccccc12)NC(C)=O` [-OMe], in data set [2], the Km is 95 µM and the kcat was 0.462 s⁻¹.

With `O=C(Nc1ccc([N+](=O)[O-])cc1)[C@@H]1CCCN1` [Pro-p-NA], the “hydrolytic activity of hVACVase toward amides” value (from here on “hydrolytic activity”) in data set [1] is on record as “does not exhibit significant hydrolytic activity”.

In the case of `CC(C)C(N)C(=O)OCC1OC(n2cc(F)c(=O)[nH]c2=O)CC1O` (stereo not shown) [valine 5’-floxuridine], in data set [1], the Vmax is 148 nmol/min/µg.

For `CCOC(=O)[C@@H](N)Cc1ccccc1.Cl` [Phe-OEt, L-phenylalanine ethyl ester hydrochloride], in data set [3], the kcat is 93 ± 4 s⁻¹, the Km stood at 6700 ± 560 µM and the Vmax worked out at 193 ± 8 nmol/min/µg. Also, the specific activity in data set [1] was 75.3 units/mg. Also, the “t1/2 (estimated half-life)” value in data set [4] is 16.773 ± 0.433 h.

On to `CC(C)[C@H](N)C(=O)Nc1ccc([N+](=O)[O-])cc1` [Val-p-NA], for which, in data set [1], the “hydrolytic activity” value is given as “does not exhibit significant hydrolytic activity”.

For the compound `CCOC(=O)[C@H](Cc1c[nH]c2ccccc12)NC(C)=O` [-OEt], in data set [2], the Km was 97 µM and the kcat is 0.448 s⁻¹.

As to `NCCCC[C@H](N)C(=O)Nc1ccc([N+](=O)[O-])cc1` [Lys-p-NA], the “hydrolytic activity” value in data set [1] is “does not exhibit significant hydrolytic activity”.

Take `CC(C)C(N)C(=O)OC1CC(n2cc(F)c(=O)[nH]c2=O)OC1CO` (stereo not shown) [valine 3’-floxuridine ester]: the Vmax in data set [1] is 33 nmol/min/µg.

In the case of `Br.CC(C)[C@H](N)C(=O)OCc1ccc([N+](=O)[O-])cc1` [valine p-nitrobenzyl ester, L-Valine p-nitrobenzyl ester hydrobromide], in data set [3], the kcat is 130 ± 2 s⁻¹, the Km was 14 ± 1 µM and the Vmax was determined as 272 ± 3 nmol/min/µg. Besides, the “t1/2 (estimated half-life)” value in data set [4] was 6.872 ± 0.198 h.

Consider `CC(C)[C@H](N)C(=O)OCCOCn1cnc2c(=O)[nH]c(N)nc21` [valacyclovir], for which the Km in data set [1] is 190 µM. In data set [4] (HEPES buffer, pH 7.4), this compound came in with a half-life of 12.37 ± 0.0917 h. Moreover, in data set [5], the Km is 68 ± 4 µM, the Vmax was 120 ± 2 nmol/min/µg and the kcat was 58 ± 1 s⁻¹.

For the compound `NCC(=O)N1CCCC1C(=O)Nc1ccc([N+](=O)[O-])cc1` (stereo not drawn) [Gly-Pro-p-NA] (H-Gly-[ξP]-pNA), the “hydrolytic activity” value in data set [1] was “does not exhibit significant hydrolytic activity”.

In the case of `N=C(N)Nc1cccc(COC(=O)[C@@H](N)Cc2ccccc2)c1` [Phe-3-HPG], the “t1/2 (estimated half-life)” value in data set [4] is 3.833 ± 0.108 h. In addition, in data set [5], the Km is 207 ± 16 µM, the Vmax is 718 ± 16 nmol/min/µg and the kcat was 345 ± 8 s⁻¹.

For `CC(C)[C@H](N)C(=O)OCC(CO)OCn1cnc2c(=O)nc(N)[nH]c21` (stereo partly shown) [valganciclovir], in data set [1], the Km was 1900 µM.

On to `CC(C)[C@H](N)C(=O)OCc1ccccc1.Cl` [Val-OBn, L-valine benzyl ester hydrochloride], for which, in data set [3], the kcat was 60 ± 3 s⁻¹, the Km was 60 ± 15 µM and the Vmax came to 125 ± 7 nmol/min/µg. The “t1/2 (estimated half-life)” value in data set [4] was 14.3 ± 0.127 h.

For `CC(C)C(N)C(=O)OCc1cccc(NC(=N)N)c1` (stereo not shown) [Val-3-HPG], the “t1/2 (estimated half-life)” value in data set [4] is 8.115 ± 0.11 h. For the same compound, in data set [5], the Km is 46 ± 5 µM, the Vmax is 321 ± 9 nmol/min/µg and the kcat is 154 ± 4 s⁻¹.

Regarding `CC(C)C[C@H](N)C(=O)Nc1ccc([N+](=O)[O-])cc1` [Leu-p-NA], in data set [1], the “hydrolytic activity” value is on record as “does not exhibit significant hydrolytic activity”.

`N[C@@H](Cc1ccccc1)C(=O)Nc1ccc([N+](=O)[O-])cc1` [Phe-p-NA]: the “hydrolytic activity” value in data set [1] is on record as “does not exhibit significant hydrolytic activity”.

For the compound `Cl.N[C@@H](Cc1ccccc1)C(=O)OCc1ccccc1` [Phe-OBn, L-phenylalanine benzyl ester hydrochloride], in data set [3], the kcat is 395 ± 26 s⁻¹, the Km is 99 ± 26 µM and the Vmax was determined as 822 ± 54 nmol/min/µg. Besides, the specific activity in data set [1] was 358.3 units/mg. In addition, the “t1/2 (estimated half-life)” value in data set [4] is 6.083 ± 0.157 h.

Regarding `CC(=O)N[C@@H](Cc1c[nH]c2ccccc12)C(=O)Oc1ccc([N+](=O)[O-])cc1` [-OPNP], in data set [2], the Km is 2 µM and the kcat is 0.508 s⁻¹.

Regarding `CC(=O)N[C@@H](Cc1c[nH]c2ccccc12)C(N)=O` [-NH2], in data set [2], the Km is 5000 µM and the kcat is 0.0006 s⁻¹.
